Experiments:
[1] = system: human colonic epithelial cells (HCT8 enterocytes and HT29-MTX goblet cells); assay: trans-epithelial electrical resistance (TEER) assay, epithelial/monocyte co-culture disrupted by heat killed E. coli; format: cell-based; settings: staurosporine 100 nM, control compound
Description: Assays were performed as described below in trans-well plates where co-cultures of multiple cell types were performed utilizing a permeable membrane to separate cells. In the apical (top) chamber, human colonic epithelial cells, consisting of a mixture of enterocytes and goblet cells, were cultured until cells obtained tight junction formation and barrier function capacity as assessed by measurement of trans-epithelial electrical resistance (TEER). In the basolateral chamber, monocytes were cultured separately. Epithelial […] were primed with inflammatory cytokines. The assays measured the effect of a therapeutic protein, e.g., SG-11, on epithelial barrier function, muc2 gene expression, and production of cytokines.
Cell culture. The HCT8 human enterocyte cell line (ATCC Cat. No. CCL-244) was maintained in RPMI-1640 medium supplemented with 10% fetal bovine seam, 100 IU/ml penicillin, 100 ? g/ml streptomycin, 10 ? g/ml gentamicin and 0.25 μg/ml amphotericin (cRPMI). […]
Epithelial cell culture. […] Epithelial cells were trypsinized from culture flasks and viable cells determined by trypan blue counting. […]
Co-culture assay. […] TEER readings were measured after the IFN-© treatment and were used as the pre-treatment TEER value. […]

[2] = system: HCT8 enterocyte and HT29-MTX goblet cell lines; assay: Oris Cell Migration assay (epithelial cell wound healing); format: cell-based, human; settings: 48 hours; SG-11 1 μg/ml, EGF 30 ng/ml, staurosporine 100 nM; FIG. 2
From the text: The 96 well Oris Cell Migration assay containing plugs preventing cell attachment in the center of each well was used according to the manufacturer's instructions (Platypus Technologies. Madison, Wis.).
The migration assay plates were warmed to room temperature prior to use and plugs were removed rom 100% confluence wells prior to cell addition. The HCT8 enterocyte and HT29-MTX goblet cell lines were used at a 9:1 ratio with a total of 5×10^4 total cells added per well (4.5×10^4 HCT8 cells and 0.5×10^4 HT29-MTX cells). Cells were incubated at 37° C.+5% CO2 for 24 hours. Plugs were then removed from all control and sample wells. Control wells included cells treated with the diluent vehicle as the blank, 30 ng/ml epidermal growth factor (EGF) as the positive control, and 100 nM staurosporine as the negative control, all diluted in cRPMI. Sample wells contained SG-11 protein (SEQ ID NO:9) at a concentration of 1 μg/ml diluted in eRPMI. 100% and 0% wells were cultured in cRPMI. […] The green fluorescent viability dye Calcenin AM was added to all wells at a concentration of 0.5 μg/min PBS containing 0.9 mM CaCl2 and 0.5 mM MgCl2, incubated for 30 min at 37° C.+5% CO2, the dye was removed and cells were washed in PBS containing 0.9 mM CaCl2 and 0.5 mM MgCl2, and fluorescence was measured. […] Samples were normalized between 100% and 0% samples and values expressed as a percent growth.

[3] = system: C57BL/6 mice treated with DSS; assay: concurrent (prophylactic) DSS model of inflammatory bowel disease (Examples 4, 13A); format: in vivo; settings: Example 4; 50 nmoles/kg i.p. b.i.d.
Description: On day six, mice were fasted for four hours and then orally gavaged with 600 mg/kg 4KDa dextran labeled with fluorescein isothiocyanate (FITC) [4KDa-FITC]. One hour after the 4KDa-FITC gavage, mice were euthanized, blood was collected, and FITC signal was measured in serum. […] The magnitude of 4KDa-FITC dextran translocation observed for SG-11 was similar to the positive control of Gly2-GLP2. Results are shown in FIG. 3, and are presented as mean±SEM. The graph in FIG. 3 represents data pooled from 3 independent experiments, each using 10 mice (n=30).
SG-11 was also assessed for its effects on the levels of lipopolysaccharide (LPS) binding protein (LBP) in the blood of the DSS animal with and without SG-11 administration. LBP, which has been linked to clinical disease activity in subjects with inflammatory bowel disease, was also measured by […] in the serum of mice tested in the DSS model described in this Example. […] Results are shown in FIG. 4, and are presented as mean±SEM. The graph in FIG. 4 represents data pooled from 3 independent experiments (n=30; each experiment using 10 mice).
Body weight was measured daily from mice included in the DSS model described in this Example. Percent change from starting weight on day 0 was determined for each mouse. […]
Colon length was measured in mice included in the DSS model described above. […]

[4] = system: C57BL/6 mice treated with DSS; assay: therapeutic DSS model of inflammatory bowel disease, treatment after 7 days DSS (Examples 5, 13B); format: in vivo
Description: Following a 7-day acclimation period, the mice were provided with drinking water containing 2.5% DSS for 7 days. Fresh 2.5% DSS water was prepared every 2 days during the 7 day DSS administration. For this therapeutic DSS study, SG-11 used to treat the animals was fused at its N-terminus to a FLAG Tag (DYKDDDDK; SEQ ID NO:32).
On day 7, normal drinking water was restored and i.p. treatments of 50 nmole/kg of SG-11 ([…]) or Gly2-GLP2 (0.2 mg/kg) were initiated. Treatments were administered twice a day (b.i.d.), with a morning and evening dose (every 8 and 16 hours) for six days.
Body weight was measured daily during the morning treatment. The colon tissue was then harvested and length was measured in centimeters and the tissue was weighed. Fecal material was flushed from the colon and residual PBS removed by gently running the colon tissue through a pair of forceps. The colon tissue was then weighed and colon weight to length ratio in mg/mm was determined. Following weight measurements proximal and distal colon tissue was banked for RNA and protein analysis and the remaining tissues was fixed in 10% neutral buffered formalin for histopathology. Statistical analysis was performed by a one-way ANOVA compared to DSS+vehicle for serum 4KDa-FITC translocation, scrum LBP concentrations, colon length, and colon weight to length ratio, while a two-way ANOVA was performed for analysis of body weight. In all analysis, a Fisher's LSD test for multiple comparisons was used. Graphs represent data pooled from two experiments, and are plotted as mean±SEM.
Histopathology analysis was performed on proximal and distal colon tissues from the therapeutic DSS model described above. Proximal (FIG. 13A) and distal (FIG. 13B) colon scores (range 0-4) are presented as well as the total score for the colon which represents the sum of proximal and distal colon scores (Range 0-8) (FIG. 13C). LMA=Loss of mucosal architecture, Edema=Edema, INF=Inflammation, TMI=Transmural inflammation, MH=Mucosal hyperplasia, DYS=Dysplasia. Graphs represent data pooled from two independent experiments, and are plotted as mean±SEM. Statistical analysis was performed by a one-way ANOVA compared to DSS+vehicle followed by a Fisher's LSD test for multiple comparisons. […]
At the end of each DSS model study, mice were fasted for 4 hours and then orally gavaged with 600 mg/kg 4KDa dextran labeled with FITC [4KDa-FITC]. One hour after the 4KDa-FITC gavage, mice were euthanized, blood was collected, and FITC signal was measured in serum. […]
Upon completion of the OSS models above. LBP levels were measured as an inflammation centric readout of barrier function following the protocol detailed in Example 5. […] LPS binding protein (LBP) levels were measured in serum using a commercially available ELISA Kit (Enzo Lift Sciences).

[5] = mouse, in vivo, ip
Description: Eight-week old C57BL/6 mice were housed 5 animals per cage and given food and water ad libitum for 7 days. Following the 7-day acclimation period, treatments were initiated concurrently with addition of 2.5% DSS to the drinking water. […] The mice were treated with 2.5% DSS in their drinking water for 6 days. […] Fresh 2.5% DSS drinking water was prepared every 2 days.

CN[C@@H]1C[C@H]2O[C@@](C)([C@@H]1OC)n1c3ccccc3c3c4c(c5c6ccccc6n2c5c31)C(=O)NC4 [staurosporine, reference compound]
TEER [1]: drastic decrease in TEER
percent growth (epithelial cell wound healing) [2]: suppressing cell proliferation

EGF: epidermal growth factor, positive control (NSDSECPLSHDGYCLHDGVCMYIEALDKYACNCVVGYIGERCQYRDLKWWELR; UniProt P01133 971-1023, looked up)
percent growth (epithelial cell wound healing) [2]: increasing proliferation

Gly2-GLP2 [reference compound]
colon length [3]: significant improvement in colon length
colon weight to length ratio [3]: significant improvement in colon weight to length ratios
histopathology: inflammation and transmural inflammation scores ([4]; Example 5): no change
histopathology: loss of mucosal architecture score ([4]; Example 5): modest, but significant reduction
serum LBP ([4]; Example 5, 50 nmole/kg i.p. b.i.d. six days after 7 days DSS, FLAG-tagged SG-11): no reduction in LBP
colon weight to length ratio ([4]; Example 13B, p<0.01): did not

fluorescently labeled bovine serum albumin: fluorescently labeled bovine serum albumin used for tracking studies
time at which protein reached the colon [5]: 6 h

— US20210380994A1, “LACTOCOCCUS LACTIS EXPRESSION SYSTEM FOR DELIVERING PROTEINS EFFICACIOUS FOR THE TREATMENT OF EPITHELIAL BARRIER FUNCTION DISORDERS” (Second Genome, Inc., priority 2018, published 2021)
